Laboratory results published in patent US10485235B2, “Aryloxypyrimidinyl ethers as herbicides” (FMC Corporation, priority 2015, dated 2019).

How the values were obtained:
Type in all cases: in vivo
corn (Zea mays) = test: Test A postemergence, corn; details: Zea mays, post-emergence, 240 h, postemergence, 0 to 100 scale, 0 is no effect, 100 is complete control, approximately 10 days; for Corn plant response rating (crop injury, 0 = no effect, 100 = complete kill) at 31 g/ha: 31 g ai/ha; for Corn plant response rating (crop injury, 0 = no effect, 100 = complete kill) at 125 g/ha: 125 g ai/ha
Method in brief: (§1)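 Compounds, formulated in a surfactant-containing solvent mixture that is non-phytotoxic, are sprayed onto soil after seeding (preemergence) or onto young plants, one to two leaves and 2 to 10 cm high (postemergence). Response is scored visually after around 10 days, where 0 means no effect and 100 means complete control.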

[1] = tested on: wheat (Triticum aestivum); test: Test A postemergence, wheat; details: Triticum aestivum, post-emergence, 240 h, postemergence, 0 to 100 scale, 0 is no effect, 100 is complete control, approximately 10 days, read-out: Plant response rating, Wheat; for plant injury at 31 g/ha: 31 g ai/ha; for plant injury at 125 g/ha: 125 g ai/ha
Method in brief: as §1

[2] = tested on: sedge, umbrella (small-flower umbrella sedge, Cyperus difformis); test: Test B flooded paddy test, umbrella sedge; details: Cyperus difformis; 250 g ai/ha, Flood; visual rating after 13 to 15 days; scale 0 to 100, 0 is no effect, 100 is complete control; read-out: Plant response rating, Sedge, Umbrella
Method in brief: (§2)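 2-leaf plants; flood to 3 cm, dose into water, hold depth; greenhouse 13–15 d; visual score 0–100 vs controls; dash = not tested.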

[3] = tested on: blackgrass (Alopecurus myosuroides); test: Test A postemergence, blackgrass; details: Alopecurus myosuroides, post-emergence, 240 h, postemergence, 0 to 100 scale, 0 is no effect, 100 is complete control, approximately 10 days, read-out: Plant response rating, Blackgrass; for pest or weed control at 31 g/ha: 31 g ai/ha; for pest or weed control at 125 g/ha: 125 g ai/ha
Method in brief: as §1

[4] = tested on: pigweed (Amaranthus retroflexus); test: Test A preemergence, pigweed; details: Amaranthus retroflexus, pre-emergence, 240 h, Preemergence, 0 to 100 scale (0 no effect, 100 complete control), read-out: Plant response rating, Pigweed; for pest or weed control at 31 g/ha: 31 g ai/ha; for pest or weed control at 125 g/ha: 125 g ai/ha
Method in brief: as §1

[5] = tested on: foxtail, giant (giant foxtail, Setaria faberii); test: Test A preemergence, giant foxtail; details: Setaria faberi, pre-emergence, 240 h, Preemergence, 0 to 100 scale (0 no effect, 100 complete control), read-out: Plant response rating, Foxtail, Giant; for pest or weed control at 31 g/ha: 31 g ai/ha; for pest or weed control at 125 g/ha: 125 g ai/ha
Method in brief: as §1

kochia (Kochia scoparia) = test: Test A preemergence, kochia; details: Bassia scoparia, pre-emergence, 240 h, Preemergence, 0 to 100 scale (0 no effect, 100 complete control), read-out: Plant response rating, Kochia; for pest or weed control at 31 g/ha: 31 g ai/ha; for pest or weed control at 125 g/ha: 125 g ai/ha
Method in brief: as §1

[6] = tested on: barnyardgrass (Echinochloa crus-galli); test: Test B flooded paddy test, barnyardgrass; details: Echinochloa crus-galli; 250 g ai/ha, Flood; visual rating after 13 to 15 days; scale 0 to 100, 0 is no effect, 100 is complete control; read-out: Plant response rating, Barnyardgrass
Method in brief: as §2

[7] = tested on: barnyardgrass (Echinochloa crus-galli); test: Test A preemergence, barnyardgrass; details: Echinochloa crus-galli, pre-emergence, 240 h, Preemergence, 0 to 100 scale (0 no effect, 100 complete control), read-out: Plant response rating, Barnyardgrass; for pest or weed control at 31 g/ha: 31 g ai/ha; for pest or weed control at 125 g/ha: 125 g ai/ha
Method in brief: as §1

[8] = tested on: ryegrass, Italian (Italian ryegrass, Lolium multiflorum); test: Test A preemergence, Italian ryegrass; details: Lolium multiflorum, pre-emergence, 240 h, Preemergence, 0 to 100 scale (0 no effect, 100 complete control), read-out: Plant response rating, Ryegrass, Italian; for pest or weed control at 31 g/ha: 31 g ai/ha; for pest or weed control at 125 g/ha: 125 g ai/ha
Method in brief: as §1

[9] = tested on: galium (catchweed bedstraw, Galium aparine); test: Test A postemergence, galium; details: Galium, post-emergence, 240 h, postemergence, 0 to 100 scale, 0 is no effect, 100 is complete control, approximately 10 days, read-out: Plant response rating, Galium; for pest or weed control at 31 g/ha: 31 g ai/ha; for pest or weed control at 125 g/ha: 125 g ai/ha
Method in brief: as §1

[10] = tested on: ducksalad (Heteranthera limosa); test: Test B flooded paddy test, ducksalad; details: Heteranthera limosa; 250 g ai/ha, Flood; visual rating after 13 to 15 days; scale 0 to 100, 0 is no effect, 100 is complete control; read-out: Plant response rating, Ducksalad
Method in brief: as §2

[11] = tested on: ragweed (common ragweed, Ambrosia elatior); test: Test A postemergence, ragweed; details: Ambrosia artemisiifolia, post-emergence, 240 h, postemergence, 0 to 100 scale, 0 is no effect, 100 is complete control, approximately 10 days, read-out: Plant response rating, Ragweed; for pest or weed control at 31 g/ha: 31 g ai/ha; for pest or weed control at 125 g/ha: 125 g ai/ha
Method in brief: as §1

[12] = tested on: ryegrass, Italian (Italian ryegrass, Lolium multiflorum); test: Test A postemergence, Italian ryegrass; details: Lolium multiflorum, post-emergence, 240 h, postemergence, 0 to 100 scale, 0 is no effect, 100 is complete control, approximately 10 days, read-out: Plant response rating, Ryegrass, Italian; for pest or weed control at 31 g/ha: 31 g ai/ha; for pest or weed control at 125 g/ha: 125 g ai/ha
Method in brief: as §1

[13] = tested on: ragweed (common ragweed, Ambrosia elatior); test: Test A preemergence, ragweed; details: Ambrosia artemisiifolia, pre-emergence, 240 h, Preemergence, 0 to 100 scale (0 no effect, 100 complete control), read-out: Plant response rating, Ragweed; for pest or weed control at 31 g/ha: 31 g ai/ha; for pest or weed control at 125 g/ha: 125 g ai/ha
Method in brief: as §1

N#Cc1cccc(Oc2ncc(F)cn2)c1OCCCC(F)(F)F [Compound 4, 3-[(5-fluoro-2-pyrimidinyl)oxy]-2-(4,4,4-trifluorobutoxy)benzonitrile] showed a Corn plant response rating (crop injury, 0 = no effect, 100 = complete kill) at 31 g/ha (corn (Zea mays)) of 40%, a Corn plant response rating (crop injury, 0 = no effect, 100 = complete kill) at 125 g/ha (corn (Zea mays)) of 90% and a plant injury at 31 g/ha [1] of 20%. It also gave a plant injury at 125 g/ha [1] of 20%, a pest or weed control at 250 g/ha [2] of 95% and a pest or weed control at 31 g/ha [3] of 40%. It also gave a pest or weed control at 125 g/ha [3] of 90%, a pest or weed control at 31 g/ha [4] of 90% and a pest or weed control at 125 g/ha [4] of 100%. The pest or weed control at 31 g/ha [5] was 100%, the pest or weed control at 125 g/ha [5] was 100% and the pest or weed control at 31 g/ha (kochia (Kochia scoparia)) was 40%. It also gave a pest or weed control at 125 g/ha (kochia (Kochia scoparia)) of 90%, a pest or weed control at 250 g/ha [6] of 50% and a pest or weed control at 31 g/ha [7] of 60%. For the same compound, the pest or weed control at 125 g/ha [7] was 100%, the pest or weed control at 31 g/ha [8] was 10% and the pest or weed control at 125 g/ha [8] was 60%. The pest or weed control at 31 g/ha [9] was 50%, the pest or weed control at 125 g/ha [9] was 90% and the pest or weed control at 250 g/ha [10] was 90%. For the same compound, the pest or weed control at 31 g/ha [11] was 0%, the pest or weed control at 125 g/ha [11] was 20% and the pest or weed control at 31 g/ha [12] was 0%. It also gave a pest or weed control at 125 g/ha [12] of 40%, a pest or weed control at 31 g/ha [13] of 10% and a pest or weed control at 125 g/ha [13] of 30%.
Work on N#Cc1cccc(Oc2ncc(F)cn2)c1OCC(F)(F)F [Compound 41] yielded a Corn plant response rating (crop injury, 0 = no effect, 100 = complete kill) at 31 g/ha (corn (Zea mays)) of 0%, a Corn plant response rating (crop injury, 0 = no effect, 100 = complete kill) at 125 g/ha (corn (Zea mays)) of 10% and a plant injury at 31 g/ha [1] of 0%. It also gave a plant injury at 125 g/ha [1] of 0%, a pest or weed control at 31 g/ha [3] of 0% and a pest or weed control at 125 g/ha [3] of 10%. It also gave a pest or weed control at 31 g/ha [4] of 100%, a pest or weed control at 125 g/ha [4] of 100% and a pest or weed control at 31 g/ha [5] of 20%. The pest or weed control at 125 g/ha [5] was 80%, the pest or weed control at 31 g/ha (kochia (Kochia scoparia)) was 50% and the pest or weed control at 125 g/ha (kochia (Kochia scoparia)) was 100%. The pest or weed control at 31 g/ha [7] was 0%, the pest or weed control at 125 g/ha [7] was 40% and the pest or weed control at 31 g/ha [8] was 0%. It also gave a pest or weed control at 125 g/ha [8] of 10%, a pest or weed control at 31 g/ha [9] of 10% and a pest or weed control at 125 g/ha [9] of 20%. For the same compound, the pest or weed control at 31 g/ha [11] was 10%, the pest or weed control at 125 g/ha [11] was 10% and the pest or weed control at 31 g/ha [12] was 0%. The pest or weed control at 125 g/ha [12] was 10%, the pest or weed control at 31 g/ha [13] was 0% and the pest or weed control at 125 g/ha [13] was 20%.
Work on N#Cc1cccc(Oc2ncc(Cl)cn2)c1OCC(F)(F)F [Compound 1] yielded a Corn plant response rating (crop injury, 0 = no effect, 100 = complete kill) at 31 g/ha (corn (Zea mays)) of 10%, a Corn plant response rating (crop injury, 0 = no effect, 100 = complete kill) at 125 g/ha (corn (Zea mays)) of 10% and a plant injury at 31 g/ha [1] of 0%. It also gave a plant injury at 125 g/ha [1] of 0%, a pest or weed control at 31 g/ha [3] of 0% and a pest or weed control at 125 g/ha [3] of 20%. It also gave a pest or weed control at 31 g/ha [4] of 100%, a pest or weed control at 125 g/ha [4] of 100% and a pest or weed control at 31 g/ha [5] of 60%. It also gave a pest or weed control at 125 g/ha [5] of 100%, a pest or weed control at 31 g/ha (kochia (Kochia scoparia)) of 60% and a pest or weed control at 125 g/ha (kochia (Kochia scoparia)) of 100%. The pest or weed control at 31 g/ha [7] was 10%, the pest or weed control at 125 g/ha [7] was 80% and the pest or weed control at 31 g/ha [8] was 0%. It also gave a pest or weed control at 125 g/ha [8] of 10%, a pest or weed control at 31 g/ha [9] of 10% and a pest or weed control at 125 g/ha [9] of 40%. It also gave a pest or weed control at 31 g/ha [11] of 10%, a pest or weed control at 125 g/ha [11] of 10% and a pest or weed control at 31 g/ha [12] of 0%. The pest or weed control at 125 g/ha [12] was 0%, the pest or weed control at 31 g/ha [13] was 0% and the pest or weed control at 125 g/ha [13] was 100%.
